The values that follow come from article PMC12645469 (Nature structural & molecular biology, 2024).

Data set [1] addresses T1, NaDC3 (Homo sapiens, UniProt Q8WWT9).
T1 sequence (Q8WWT9 1-602): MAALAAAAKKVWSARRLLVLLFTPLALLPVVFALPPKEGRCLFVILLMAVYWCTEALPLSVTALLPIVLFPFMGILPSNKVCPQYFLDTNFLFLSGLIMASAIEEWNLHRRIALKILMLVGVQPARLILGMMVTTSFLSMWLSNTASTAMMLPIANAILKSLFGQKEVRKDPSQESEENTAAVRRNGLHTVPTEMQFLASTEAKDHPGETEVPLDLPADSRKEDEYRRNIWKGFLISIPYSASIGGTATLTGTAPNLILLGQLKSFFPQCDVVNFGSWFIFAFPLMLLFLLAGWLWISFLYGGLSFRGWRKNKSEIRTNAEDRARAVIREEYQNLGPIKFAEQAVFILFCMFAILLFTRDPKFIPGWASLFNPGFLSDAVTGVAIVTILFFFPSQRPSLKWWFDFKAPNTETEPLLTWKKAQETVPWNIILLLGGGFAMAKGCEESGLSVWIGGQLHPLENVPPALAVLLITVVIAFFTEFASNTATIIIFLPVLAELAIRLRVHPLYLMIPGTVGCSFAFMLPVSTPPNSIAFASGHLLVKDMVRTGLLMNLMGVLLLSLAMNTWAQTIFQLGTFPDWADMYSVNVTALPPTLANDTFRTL
Kind of data set: biochemical.

In data set [2] the target is NaDC3 (Homo sapiens, UniProt Q8WWT9, F93Y).
Data set [3] deals with T1, NaDC3. Description: cryo-EM structure. Type of data set: cell-based.
In data set [4] the target is T1, NaDC3. Kind of data set: intrinsic tryptophan fluorescence quenching. Type of data set: binding.
The data set “cryo-EM structure” concerns the molecule itself. Kind of data set: cryo-EM structure.

Usually Kd stands for the free concentration of one partner at which half of the binding sites on the other are occupied at equilibrium, for simple one-to-one binding. High values mean lower affinity, low ones higher affinity. As a reminder, the Km is the concentration of substrate that gives half-maximal velocity. The term IC50 denotes the concentration needed to halve the response being measured. High values mean a need for much substance, low ones inhibition by little substance. Usually stoichiometry N stands for the number of molecules, sites or subunits per partner or assembly.

Sequence of NaDC3 (Homo sapiens, UniProt Q8WWT9, F93Y) (Q8WWT9 whole entry F93Y): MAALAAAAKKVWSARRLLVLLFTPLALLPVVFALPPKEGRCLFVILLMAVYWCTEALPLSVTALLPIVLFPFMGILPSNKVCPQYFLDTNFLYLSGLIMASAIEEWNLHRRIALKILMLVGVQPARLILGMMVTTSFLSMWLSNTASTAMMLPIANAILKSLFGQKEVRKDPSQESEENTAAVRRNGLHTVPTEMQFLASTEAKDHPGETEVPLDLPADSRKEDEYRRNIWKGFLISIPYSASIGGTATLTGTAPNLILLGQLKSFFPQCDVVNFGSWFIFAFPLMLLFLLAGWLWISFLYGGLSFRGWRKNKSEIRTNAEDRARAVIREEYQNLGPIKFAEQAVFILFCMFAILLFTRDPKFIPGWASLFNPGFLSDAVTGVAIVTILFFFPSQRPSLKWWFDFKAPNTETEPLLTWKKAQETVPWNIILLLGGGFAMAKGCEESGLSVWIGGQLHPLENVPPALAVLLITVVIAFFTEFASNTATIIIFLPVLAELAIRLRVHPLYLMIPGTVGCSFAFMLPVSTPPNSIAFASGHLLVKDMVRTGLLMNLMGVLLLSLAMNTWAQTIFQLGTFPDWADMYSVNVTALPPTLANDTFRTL

Turning to `O=C(O)CCC(=O)O` [Succ, succinate], on NaDC3 [1], binding was characterised by a dissociation constant (Kd) of 17.6 ± 9.8 µM. The Km at NaDC3 [2] was 10.5 ± 5.9 µM.
The molecule `COc1ncc(C)cc1CC[C@@](O)(CC(=O)O)C(=O)O` [PF4a, PF-06761281] gave an IC50 against NaDC3 [3] of 39.2 µM.
Molecule `CC(C(=O)O)C(C)C(=O)O` (centres unmarked) [DMS, 2,3-dimethylsuccinate] came in with a dissociation constant Kd at NaDC3 [4] of 10.2 ± 5.6 µM.

B1: human high affinity sodium-dicarboxylate cotransporter NaDC3 (natural protein)
chain: MAALAAAAKKVWSARRLLVLLFTPLALLPVVFALPPKEGRCLFVILLMAVYWCTEALPLSVTALLPIVLFPFMGILPSNKVCPQYFLDTNFLFLSGLIMASAIEEWNLHRRIALKILMLVGVQPARLILGMMVTTSFLSMWLSNTASTAMMLPIANAILKSLFGQKEVRKDPSQESEENTAAVRRNGLHTVPTEMQFLASTEAKDHPGETEVPLDLPADSRKEDEYRRNIWKGFLISIPYSASIGGTATLTGTAPNLILLGQLKSFFPQCDVVNFGSWFIFAFPLMLLFLLAGWLWISFLYGGLSFRGWRKNKSEIRTNAEDRARAVIREEYQNLGPIKFAEQAVFILFCMFAILLFTRDPKFIPGWASLFNPGFLSDAVTGVAIVTILFFFPSQRPSLKWWFDFKAPNTETEPLLTWKKAQETVPWNIILLLGGGFAMAKGCEESGLSVWIGGQLHPLENVPPALAVLLITVVIAFFTEFASNTATIIIFLPVLAELAIRLRVHPLYLMIPGTVGCSFAFMLPVSTPPNSIAFASGHLLVKDMVRTGLLMNLMGVLLLSLAMNTWAQTIFQLGTFPDWADMYSVNVTALPPTLANDTFRTL
Turning to B1, the “stoichiometry N” value in the data set “cryo-EM structure” was 2.
